From US20110046147A1, “17BETA-HYDROXYSTEROID DEHYDROGENASE TYPE 1 INHIBITORS FOR THE TREATMENT OF HORMONE-RELATED DISEASES” (UNIVERSITAT DES SAARLANDES, priority 2007, published 2011) come the findings set out here.

The structures appear in SMILES notation.

One series addresses T1, CYP2B6 (Homo sapiens, UniProt P20813).
T1 construct: purchased Becton Dickinson GmbH (Heidelberg)
T1 sequence (P20813 1-491): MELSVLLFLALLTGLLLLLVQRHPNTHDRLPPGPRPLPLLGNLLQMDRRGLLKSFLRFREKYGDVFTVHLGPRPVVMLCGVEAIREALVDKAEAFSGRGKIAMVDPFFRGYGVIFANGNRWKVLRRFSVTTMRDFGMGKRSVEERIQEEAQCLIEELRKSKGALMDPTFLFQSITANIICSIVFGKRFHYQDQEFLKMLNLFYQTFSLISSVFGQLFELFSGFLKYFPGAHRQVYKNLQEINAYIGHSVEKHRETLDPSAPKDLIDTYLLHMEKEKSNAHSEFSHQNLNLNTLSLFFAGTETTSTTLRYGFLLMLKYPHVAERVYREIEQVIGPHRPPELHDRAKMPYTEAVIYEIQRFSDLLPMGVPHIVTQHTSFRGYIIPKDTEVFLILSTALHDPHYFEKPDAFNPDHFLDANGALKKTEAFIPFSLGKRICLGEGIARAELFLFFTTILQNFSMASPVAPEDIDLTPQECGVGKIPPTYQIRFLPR
Briefly: Inhibition of hepatic CYP enzymes: CYP2B6. Type of series: biochemical. Particulars: read-out: CYP2B6 IC50 (mean ± SD). The source says: Drug interactions (inhibition of hepatic CYP enzymes): The inhibition of six human hepatic cytochrome P450 enzymes by selected compounds was examined by means of the kit supplied by Becton Dickinson GmbH (Heidelberg).

Another series is described as follows: CaCo2 transport assay. Type of series: in vitro ADME. Particulars: human, Caco-2; 50 μM in donor compartment; read-out: Papp [cm/sec ± rel. SD]. As to the method: (§1) Performance of selected compounds in a CaCo2 assay: Caco-2 cell culture and transport experiments were performed according to Yee (Yee, S., Pharm. Res., 14(6): 763-766 (1997)), but slight modifications were introduced. The cultivation times were reduced from 21 to 10 days by increasing the sowing density from 6.3·10^4 to 1.65·10^5 cells per well. […] The initial concentration of the compounds in the donor compartment was 50 μM (in buffer with 1% ethanol or DMSO). Samples were taken from the acceptor side after 60, 120 and 180 min and from the donor side after 0 and 180 min. For glycoprotein P (P-gp) studies, bidirectional experiments were performed. The absorptive and secretory permeabilities (Papp (a-b) and Papp (b-a)) were determined. Thus, erythromycin was used as a substrate, and verapamil was used as an inhibitor of P-gp. Each experiment was performed in triplicate. The integrity of the monolayer was determined by means of TEER (transepithelial electric resistance) and the permeability for each assay was determined using Lucifer Yellow. All samples of the CaCo-2 transport experiments were analyzed by means of LC/MS/MS after dilution with buffer (1:1 with 2% acetic acid). The apparent permeability coefficient (Papp) was calculated by means of the formula given below, where dQ/dt represents the recovery rate of the mass in the acceptor compartment, A represents the surface area of the transwell membrane, and c0 represents the initial concentration in the donor compartment.
(In general: Caco-2 cells form a polarised layer with tight junctions and transporters.)

A further series relates to CaCo-2 cells. Briefly: CaCo2 transport assay. Type of series: in vitro ADME. As to conditions: 50 μM in donor compartment. As to the method: as §1
The nature of a further series: in vitro. As to conditions: rat, microsomes, pH 7.4. The procedure:
The reaction is started by adding 20 μl of the compound to be tested in 20% AcCN to the microsome/buffer mixture preincubated at 37° C. After 0, 15, 30 and 60 minutes, 200 μl of sample solution is withdrawn and subjected to AcCN precipitation. The isolation of the compounds is effected by adding 200 μl of AcCN that contains the internal standard (1 μM) to 200 μl of sample solution and calibration standard. After shaking for 10 s and centrifugation at 4000 g, an aliquot of the supernatant is subjected to LC-MS/MS. Two controls are included: a positive control with 7-ethoxycoumarin as a reference to verify the microsomal enzyme activity, and a negative control in which microsomes are used that were heated for 25 minutes without a regenerating system, in order to ensure that the loss of substance is actually due to metabolization.
The amount of compound in a sample is expressed as the percent fraction of the compound remaining as compared to time t=0 (100%). The percent fraction is plotted versus time.

Usually IC50 stands for the concentration at which inhibition is half-maximal. One may read the half-life as the time in which the quantity being followed falls by half. The low end stands for fast loss, the high end for slow loss. With `Oc1ccc(-c2ccsc2-c2cccc(O)c2)cc1` [Compound 28, 3-[3-(4-Hydroxyphenyl)-2-thienyl]phenol], the IC50 at CYP2B6 turned out to be 18.8 ± 2.05 µM. In addition, in the series “CaCo2 transport assay”, the Papp at 180 min, 50 μM stood at 11.5 ×10⁻⁶ cm/s. For the same molecule, the “Permeability (class in words)” value in the series on CaCo-2 cells was “high”. In addition, in the series “in vitro”, the half-life stood at 10.6 min.
Consider `Oc1cccc(-c2ccc(-c3cccc(O)c3)cc2)c1` [Compound 42, [1,1′,4′,1″]Terphenyl-3,3′-diol], for which the IC50 on CYP2B6 amounted to 7.68 ± 0.92 µM. Besides, in the series on CaCo-2 cells, the “Papp [cm/sec ± rel. SD]” value is recorded as “(12.5 ± 9.0) · 10^−6 cm/sec” and the “Permeability (class in words)” value is listed as “high”. In the series “in vitro”, the “Half life” value turned out to be 22.7 min.
